Laboratory results reported in US9512175B2, “Macrocyclic inhibitors of flaviviridae viruses” (Gilead Sciences, Inc., priority 2012, dated 2016).

How the values were obtained:
cyclophilin A = cyclophilin A (Homo sapiens, UniProt P62937); test: Cyclophilin A TR-FRET competitive binding assay; conditions: IC50 ranges; competition with CsA-Cy5 for His-tagged CypA, two-hour incubation; read-out: TR-FRET
Procedure: Cyclophilin A TR-FRET Competitive Binding Assay
Inhibitor potency was measured using a competitive binding assay with a time-resolved fluorescence resonance energy transfer (TR-FRET) readout. […] An IC50 value was calculated using a four-parameter logistic fit.

[1] = tested on: HCV replicon (Replicon 1a); test: anti-HCV activity in Huh-7 cell line harboring a HCV replicon (Replicon 1a); format: cell-based; conditions: human hepatoma Huh-7 HCV replicon cells, 3 days, luciferase readout; for inhibition at 1 µM: Hepatitis C virus, Huh-7, 72 h, read-out: Replicon 1a % inhibition at 1 μM, 1 μM

Sequence of cyclophilin A (P62937 whole entry, species assumed): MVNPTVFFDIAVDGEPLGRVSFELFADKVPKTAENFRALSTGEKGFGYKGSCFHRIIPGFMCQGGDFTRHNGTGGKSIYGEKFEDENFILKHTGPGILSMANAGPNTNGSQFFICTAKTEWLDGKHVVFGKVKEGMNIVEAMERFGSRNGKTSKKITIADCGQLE

For COC1CCC=Cc2cccc(c2)C2CCCCN2C(=O)C2CCCN(N2)C(=O)C(C)NC(=O)C(C(C)C)NC(=O)C1C (single isomer, unassigned) [Compound 29], the IC50 (cyclophilin A) was 1000 to 10000 nM and the “Replicon 1a % inhibition at 1 μM” value [1] was 28%.
COC1CCC=Cc2cccc(c2)C2CCCCN2C(=O)C2CCCN(N2)C(=O)C(C)NC(=O)C(C(C)C)NC(=O)C1C (single isomer, unassigned) [Compound 30] was tested, and the IC50 (cyclophilin A) was less than 100 nM and the “Replicon 1a % inhibition at 1 μM” value [1] was 73%.
Work on CO[C@@H]1/C=C/c2cc3cc(ccc3cn2)[C@@H](C)OC(=O)[C@]2(C)CCCN(N2)C(=O)[C@H](C)NC(=O)[C@H](C(C)C)NC(=O)[C@@H]1C (single isomer, unassigned) [Compound 34] yielded an IC50 (cyclophilin A) of less than 100 nM and an inhibition at 1 µM [1] of 92%.
In the case of CC(C)[C@@H]1NC(=O)C(C)(C)COc2cc3cc(ccc3cn2)[C@@H](C)OC(=O)[C@@H]2CCCN(N2)C(=O)[C@H](C)NC1=O (single isomer, unassigned) [Compound 68], the IC50 (cyclophilin A) is reported as less than 100 nM and the inhibition at 1 µM [1] is reported as 91%.
Work on CC(C)[C@@H]1NC(=O)C(C)(C(C)O)/C=C/c2ccc3ccc(nc3c2)[C@@H](C)OC(=O)[C@@H]2CCCN(N2)C(=O)[C@H](C)NC1=O (single isomer, unassigned) [Compound 87] yielded an IC50 (cyclophilin A) of less than 100 nM.
COCCC1(C)/C=C/c2ccc3ccc(nc3c2)[C@@H](C)OC(=O)[C@@H]2CCCN(N2)C(=O)[C@H](C)NC(=O)[C@H](C(C)C)NC1=O (single isomer, unassigned) [Compound 102] was tested, and the IC50 (cyclophilin A) was less than 100 nM and the inhibition at 1 µM [1] was 100%.
COCCC1(C)/C=C/c2ccc3ccc(nc3c2)[C@@H](C)OC(=O)[C@@H]2CCCN(N2)C(=O)[C@H](C)NC(=O)[C@H](C(C)C)NC1=O (single isomer, unassigned) [Compound 103] showed an IC50 (cyclophilin A) of less than 100 nM and an inhibition at 1 µM [1] of 100%.
With CC(C)[C@@H]1NC(=O)C(C)(C)/C=C/c2ccc3ccc(nc3c2)[C@@H](C)OC(=O)[C@@H]2CCCN(N2)C(=O)[C@H](CC2CCOCC2)NC1=O (single isomer, unassigned) [Compound 112] the IC50 (cyclophilin A) was less than 100 nM and the inhibition at 1 µM [1] was 96%.
CC(C)[C@@H]1NC(=O)C(C)(C)/C=C/c2ccc3ccc(nc3c2)[C@@H](C)OC(=O)[C@@H]2CCCN(N2)C(=O)C(CC2CCOCC2)NC1=O (single isomer, unassigned) [Compound 113] was tested, and the IC50 (cyclophilin A) was 101 to 1000 nM and the inhibition at 1 µM [1] was 13%.
With COC[C@@H]1NC(=O)[C@H](C(C)C)NC(=O)C(C)(C)/C=C/c2ccc3ccc(nc3c2)[C@@H](C)OC(=O)[C@@H]2CCCN(N2)C1=O (single isomer, unassigned) [Compound 117] the IC50 (cyclophilin A) was less than 100 nM and the inhibition at 1 µM [1] was 100%.
For CC(C)[C@@H]1NC(=O)C(C)(C)/C=C/c2ccc3ccc(nc3c2)[C@H]2CCCN2C(=O)[C@@H]2CCCN(N2)C(=O)[C@H](C)NC1=O (single isomer, unassigned) [Compound 150], the IC50 (cyclophilin A) was less than 100 nM and the inhibition at 1 µM [1] was 95%.
With CC(C)[C@@H]1NC(=O)C(C)(C)/C=C/c2ccc3ccc(nc3c2)[C@@H]2CCCN2C(=O)[C@@H]2CCCN(N2)C(=O)[C@H](C)NC1=O (single isomer, unassigned) [Compound 151] the IC50 (cyclophilin A) was 1000 to 10000 nM and the inhibition at 1 µM [1] was 0%.
CC(C)[C@@H]1NC(=O)[C@H](C)[C@H](O)CC/C=C/c2cccc(c2)[C@@H](C)NC(=O)[C@@H]2CCCN(N2)C(=O)[C@H](C)NC1=O [Compound 1, (E)-(2R,5S,11S,14S,17R,18R)-18-Hydroxy-14-isopropyl-2,11,17-trimethyl-3,9,12,15,28-pentaaza-tricyclo[21.3.1.1*5,9*]octacosa-1(26),21,23(27),24-tetraene-4,10,13,16-tetraone] gave an IC50 (cyclophilin A) of less than 100 nM and an inhibition at 1 µM [1] of 32%.
For CC(C)[C@@H]1NC(=O)[C@H](C)[C@H](OCC(F)(F)F)CC/C=C/c2cccc(c2)[C@@H](C)NC(=O)[C@@H]2CCCN(N2)C(=O)[C@H](C)NC1=O [Compound 2, (E)-(2R,5S,11 S,14S,17R,18R)-14-Isopropyl-2,11,17-trimethyl-18-(2,2,2-trifluoro-ethoxy)-3,9,12,15,28-pentaaza-tricyclo[21.3.1.1*5,9*]octacosa-1(26),21,23(27),24-tetraene-4,10,13,16-tetraone], the IC50 (cyclophilin A) was 101 to 1000 nM and the inhibition at 1 µM [1] was 63%.
Compound CC(C)[C@@H]1NC(=O)[C@H](C)[C@H](O)CCCCc2cccc(c2)[C@@H](C)NC(=O)[C@@H]2CCCN(N2)C(=O)[C@H](C)NC1=O [Compound 3, (2R,5S,11S,14S,17R,18R)-18-Hydroxy-14-isopropyl-2,11,17-trimethyl-3,9,12,15,28-pentaaza-tricyclo[21.3.1.1*5,9*]octacosa-1(26),23(27),24-triene-4,10,13,16-tetraone] has an IC50 (cyclophilin A) of less than 100 nM and an inhibition at 1 µM [1] of 44%.
CC(C)[C@@H]1NC(=O)CCC(C)(C)C/C=C/c2cccc(c2)[C@@H](C)NC(=O)[C@@H]2CCCN(N2)C(=O)[C@H](C)NC1=O [Compound 4] gave an IC50 (cyclophilin A) of 101 to 1000 nM and an inhibition at 1 µM [1] of 58%.
Work on CO[C@@H]1/C=C/c2cc3cc(ccc3cn2)[C@@H](C)NC(=O)[C@@H]2CCCN(N2)C(=O)[C@H](C)NC(=O)[C@H](C(C)C)NC(=O)[C@@H]1C [Compound 5] yielded an IC50 (cyclophilin A) of less than 100 nM and an inhibition at 1 µM [1] of 80%.
CO[C@@H]1CCc2cc3cc(ccc3cn2)[C@@H](C)NC(=O)[C@@H]2CCCN(N2)C(=O)[C@H](C)NC(=O)[C@H](C(C)C)NC(=O)[C@@H]1C [Compound 6] gave an IC50 (cyclophilin A) of less than 100 nM and an inhibition at 1 µM [1] of 86%.
For CC(C)[C@@H]1NC(=O)C/C=C/c2ccc3ncc(nc3c2)[C@@H](C)OC(=O)[C@@H]2CCCN(N2)C(=O)[C@H](C)NC1=O [Compound 7], the IC50 (cyclophilin A) was less than 100 nM and the inhibition at 1 µM [1] was 94%.
With CC(C)[C@@H]1NC(=O)CCCc2cc3cc(ccc3cn2)[C@@H](C)OC(=O)[C@@H]2CCCN(N2)C(=O)[C@H](C)NC1=O [Compound 10] the inhibition at 1 µM [1] was 28%.
CC(C)[C@@H]1NC(=O)C/C=C/c2cc3cc(ccc3cn2)[C@@H](C)NC(=O)[C@@H]2CCCN(N2)C(=O)[C@H](C)NC1=O [Compound 11] was tested, and the IC50 (cyclophilin A) was less than 100 nM and the inhibition at 1 µM [1] was 6%.
For CC(C)[C@@H]1NC(=O)/C=C\c2cc3cc(ccc3cn2)[C@@H](C)NC(=O)[C@@H]2CCCN(N2)C(=O)[C@H](C)NC1=O [Compound 12], the inhibition at 1 µM [1] was 0%.
Work on CC(C)[C@@H]1NC(=O)C/C=C/c2ccc3ccc(nc3c2)[C@@H](C)OC(=O)[C@@H]2CCCN(N2)C(=O)[C@H](C)NC1=O [Compound 24] yielded an inhibition at 1 µM [1] of 99%.
CC(C)[C@@H]1NC(=O)[C@@H]([C@H](C)O)/C=C/c2ccc3ccc(nc3c2)[C@@H](C)OC(=O)[C@@H]2CCCN(N2)C(=O)[C@H](C)NC1=O [Compound 31] gave an inhibition at 1 µM [1] of 98%.
In the case of C[C@@H]1NC(=O)[C@H](CCN=[N+]=[N-])NC(=O)C(C)(C)/C=C/c2cc3cc(ccc3cn2)[C@@H](C)OC(=O)[C@@H]2CCCN(N2)C1=O [Compound 49], the IC50 (cyclophilin A) is reported as less than 100 nM.
C#CC[C@@H]1NC(=O)C(C)(C)/C=C/c2cc3cc(ccc3cn2)[C@@H](C)OC(=O)[C@@H]2CCCN(N2)C(=O)[C@H](C)NC1=O [Compound 51] showed an IC50 (cyclophilin A) of less than 100 nM.
Compound CC(C)[C@@H]1NC(=O)C2(/C=C/c3cc4cc(ccc4cn3)[C@@H](C)OC(=O)[C@@H]3CCCN(N3)C(=O)[C@H](C)NC1=O)CC2 [Compound 58] has an IC50 (cyclophilin A) of less than 100 nM.
CC(C)[C@@H]1NC(=O)C2(/C=C/c3cc4cc(ccc4cn3)[C@@H](C)OC(=O)[C@@H]3CCCN(N3)C(=O)[C@H](C)NC1=O)CCOCC2 [Compound 59] showed an IC50 (cyclophilin A) of less than 100 nM.
For CC(C)[C@@H]1NC(=O)CCC/C=C/c2cc3cc(ccc3cn2)[C@@H](C)OC(=O)[C@@H]2CCCN(N2)C(=O)[C@H](C)NC1=O [Compound 61], the inhibition at 1 µM [1] was 72%.
With CC(C)[C@@H]1NC(=O)CCCC/C=C/c2cc3cc(ccc3cn2)[C@@H](C)OC(=O)[C@@H]2CCCN(N2)C(=O)[C@H](C)NC1=O [Compound 63] the inhibition at 1 µM [1] was 80%.
CC(C)[C@@H]1NC(=O)C(C)(C)/C=C/c2cc3cc(cnc3cn2)[C@@H](C)OC(=O)[C@@H]2CCCN(N2)C(=O)[C@H](C)NC1=O [Compound 66] gave an IC50 (cyclophilin A) of less than 100 nM.
CC(C)[C@@H]1NC(=O)CCCc2ccc3ccc(cc3c2)[C@@H](C)OC(=O)[C@@H]2CCCN(N2)C(=O)[C@H](C)NC1=O [Compound 71] gave an IC50 (cyclophilin A) of 101 to 1000 nM.
Work on CC(C)[C@@H]1NC(=O)C(C)(C)CCc2cc3cc(ccc3cn2)[C@@H](C)OC(=O)[C@@H]2CCCN(N2)C(=O)[C@H](C)NC1=O [Compound 74] yielded an inhibition at 1 µM [1] of 95%.
CC(C)[C@@H]1NC(=O)C2(/C=C/c3ccc4ccc(nc4c3)[C@@H](C)OC(=O)[C@@H]3CCCN(N3)C(=O)[C@H](C)NC1=O)COC(C)(C)OC2 [Compound 75] gave an IC50 (cyclophilin A) of less than 100 nM.
Work on CC(C)[C@@H]1NC(=O)C(C)(C2CCOC2)/C=C/c2ccc3ccc(nc3c2)[C@@H](C)OC(=O)[C@@H]2CCCN(N2)C(=O)[C@H](C)NC1=O (stereo partly drawn) [Compound 116] yielded an IC50 (cyclophilin A) of less than 100 nM.
In the case of CC(C)[C@@H]1NC(=O)C2(/C=C/c3ccc4ccc(nc4c3)[C@@H](C)OC(=O)[C@@H]3CCCN(N3)C(=O)[C@H](C)NC1=O)CCC(F)(F)CC2 [Compound 121], the IC50 (cyclophilin A) is reported as less than 100 nM.
In the case of CC(C)[C@@H]1NC(=O)C2(/C=C/c3ccc4ccc(nc4c3)[C@@H](C)OC(=O)[C@@H]3CCCN(N3)C(=O)[C@H](C)NC1=O)CCN(Cc1ccccc1)CC2 [Compound 128], the IC50 (cyclophilin A) is reported as less than 100 nM.
Work on COc1cc2nc3cc(ccc13)/C=C/C(C)(C)C(=O)N[C@@H](C(C)C)C(=O)N[C@@H](C)C(=O)N1CCC[C@H](N1)C(=O)O[C@@H]2C [Compound 139] yielded an IC50 (cyclophilin A) of less than 100 nM.
Work on CC(C)[C@@H]1NC(=O)C(C)(C)/C=C/c2ccc3c(C#N)cc(nc3c2)[C@@H](C)OC(=O)[C@@H]2CCCN(N2)C(=O)[C@H](C)NC1=O [Compound 140] yielded an IC50 (cyclophilin A) of 101 to 1000 nM.
Work on CC(C)[C@@H]1NC(=O)C([C@H](C)O)/C=C/c2ccc3ccc(cc3c2)[C@@H](C)OC(=O)[C@@H]2CCCN(N2)C(=O)[C@@H](C)NC1=O (stereo partly drawn) [Compound 145] yielded an IC50 (cyclophilin A) of less than 100 nM.
For Cc1c2ccc3c(Cl)cc(nc13)[C@@H](C)OC(=O)[C@@H]1CCCN(N1)C(=O)[C@H](C)NC(=O)[C@H](C(C)C)NC(=O)C(C)(C)/C=C/2 [Compound 164], the IC50 (cyclophilin A) was less than 100 nM.
